In publication PMC4734667 (PLoS ONE, 2016) one finds IC50 and inhibition data, which are given here for twelve molecules.

Common to all, as to assay type: cell-based
The target of one test is T1, human GluN2D (Homo sapiens, UniProt O15399+Q05586).
T1 construct: expressed in transfected cells; host or cells: HEK cells
The test is described as follows: Ca2+ fluorescence (fluo-8) assay in HEK cells expressing GluN2D. The settings on record: for inhibition at 10 µM: HEK293, 10 μM compound, negative = increase in Ca2+ response, read-out: GluN2D % Inhib. @ 10 μM ± SEM (n).

For another test, the target named is T2, human GluN2A (Homo sapiens, UniProt Q05586+Q12879).
T2 construct: host or cells: HEK293, tetracycline-induced
T2 sequence (Q12879 23-1464, other chains not shown): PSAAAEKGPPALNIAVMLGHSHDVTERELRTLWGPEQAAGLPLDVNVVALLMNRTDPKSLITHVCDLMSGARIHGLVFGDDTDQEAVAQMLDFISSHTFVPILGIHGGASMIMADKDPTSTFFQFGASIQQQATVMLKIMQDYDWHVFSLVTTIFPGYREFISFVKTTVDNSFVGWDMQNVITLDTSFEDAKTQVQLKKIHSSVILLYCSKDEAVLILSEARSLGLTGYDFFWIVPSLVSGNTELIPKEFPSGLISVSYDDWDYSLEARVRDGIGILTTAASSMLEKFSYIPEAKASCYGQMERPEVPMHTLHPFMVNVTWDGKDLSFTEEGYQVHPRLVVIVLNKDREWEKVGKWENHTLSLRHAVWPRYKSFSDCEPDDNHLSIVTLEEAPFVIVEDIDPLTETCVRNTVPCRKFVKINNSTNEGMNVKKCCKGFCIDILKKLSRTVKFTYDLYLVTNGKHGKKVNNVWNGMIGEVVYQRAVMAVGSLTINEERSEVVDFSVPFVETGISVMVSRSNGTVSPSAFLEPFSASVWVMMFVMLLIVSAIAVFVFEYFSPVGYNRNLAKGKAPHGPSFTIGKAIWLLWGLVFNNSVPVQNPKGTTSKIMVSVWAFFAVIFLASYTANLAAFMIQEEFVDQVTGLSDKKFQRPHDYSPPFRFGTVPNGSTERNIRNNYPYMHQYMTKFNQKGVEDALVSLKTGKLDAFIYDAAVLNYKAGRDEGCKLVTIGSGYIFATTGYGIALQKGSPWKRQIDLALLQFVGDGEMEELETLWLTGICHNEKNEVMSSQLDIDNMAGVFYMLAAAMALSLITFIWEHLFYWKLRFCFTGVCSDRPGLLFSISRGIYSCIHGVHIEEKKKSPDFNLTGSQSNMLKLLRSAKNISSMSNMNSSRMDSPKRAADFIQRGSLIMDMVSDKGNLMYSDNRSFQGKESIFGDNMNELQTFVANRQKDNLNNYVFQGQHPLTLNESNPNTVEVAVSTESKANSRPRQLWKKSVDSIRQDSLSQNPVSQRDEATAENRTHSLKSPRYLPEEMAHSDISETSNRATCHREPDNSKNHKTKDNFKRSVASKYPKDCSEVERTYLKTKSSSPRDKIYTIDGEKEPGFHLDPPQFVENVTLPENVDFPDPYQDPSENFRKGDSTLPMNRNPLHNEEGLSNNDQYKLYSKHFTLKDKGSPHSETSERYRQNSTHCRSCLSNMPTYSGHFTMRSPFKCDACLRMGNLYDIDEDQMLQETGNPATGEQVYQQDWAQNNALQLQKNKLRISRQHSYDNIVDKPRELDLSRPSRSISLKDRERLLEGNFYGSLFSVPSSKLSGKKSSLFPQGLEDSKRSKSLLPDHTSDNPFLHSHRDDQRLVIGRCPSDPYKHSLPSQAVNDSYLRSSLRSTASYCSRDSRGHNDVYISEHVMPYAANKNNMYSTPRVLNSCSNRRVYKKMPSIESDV
The test is described as follows: Ca2+ fluorescence (fluo-8) assay in HEK cells expressing GluN2A. The settings on record: for IC50: read-out: GluN2A IC50 (nM) ± SEM (n); for inhibition at 10 µM: HEK293, read-out: inhibition of GluN2A activity at 10 μM, 10 μM compound, HEK cell assay. As to the method: HEK293 cells expressing the human GRIN1/GRIN2A genes (Chantest Catalog #: CT6120) were grown as an adherent monolayer at 37°C, 5% CO2 in DMEM/Ham’s F12 + 10% tetracycline-screened FBS (Hyclone SH3007.03T) and 500 μg/ml G418. […] To prepare the cells for an experiment, they were rinsed with Dulbecco’s PBS (Ca^2+ and Mg^2+ free) and detached from the flask with TrypLE™ Express (Life Technologies, Carlsbad, CA) using the manufacturer’s recommended methods. Cells collected from the flask were washed twice in Ca^2+/Mg^2+-free Hanks Balanced Salt Solution + 20 mM HEPES (HBSS), and counted and assessed for viability with trypan blue. Washed cells were then dye-loaded by resuspending in Fluo-8/AM calcium sensitive dye plus Component B (AAT Bioquest, Sunnyvale, CA) diluted in HBSS. […] The cell plates were centrifuged at 200 x g, for 2 minutes at 21°C, to create a monolayer of cells at the bottom of the wells.
To initiate an assay, 10 μl of test compound or buffer was added to each well of the cell plate and pre-incubated for 10 minutes in the dark. After 10 minutes, the cell plate was placed in a FDSS 6000 plate reader (Hamamatsu Photonics, Middlesex, NJ); baseline fluorescence readings were collected for 20 seconds. Next, 25 μl of agonist solution (3 μM glutamate, 3 μM glycine, and 1 mM Ca^2+ in HBSS) was added and the change in fluorescence was recorded for 3 minutes.
Results were calculated by computing the ratio of maximum fluorescence achieved during agonist-addition phase vs. baseline fluorescence.

A further test has as its target T3, human GluN2B (Homo sapiens, UniProt Q05586+Q13224).
T3 construct: expressed in transfected cells; host or cells: HEK cells
In words: Ca2+ fluorescence (fluo-8) assay in HEK cells expressing GluN2B. The settings on record: for inhibition at 10 µM: HEK293, 10 μM compound, negative = increase in Ca2+ response, read-out: GluN2B % Inhib. @ 10 μM ± SEM (n).

[1] abbreviates: inhibition of Ca2+ response, HEK cells, glutamate and glycine 3 μM each, read-out: GluN2D IC50 (nM) ± SEM (n).
The mark [2] stands for this setting: inhibition of Ca2+ response, HEK cells, glutamate and glycine 3 μM each.
[3] abbreviates: inhibition of Ca2+ response, HEK cells, glutamate and glycine 3 μM each, read-out: GluN2B IC50 (nM) ± SEM (n).

Like-named read-outs stand apart in the source and are kept apart here.

The IC50 is the point on the concentration scale where inhibition reaches its midpoint.

T1 sequence (O15399 28-1336, other chains not shown): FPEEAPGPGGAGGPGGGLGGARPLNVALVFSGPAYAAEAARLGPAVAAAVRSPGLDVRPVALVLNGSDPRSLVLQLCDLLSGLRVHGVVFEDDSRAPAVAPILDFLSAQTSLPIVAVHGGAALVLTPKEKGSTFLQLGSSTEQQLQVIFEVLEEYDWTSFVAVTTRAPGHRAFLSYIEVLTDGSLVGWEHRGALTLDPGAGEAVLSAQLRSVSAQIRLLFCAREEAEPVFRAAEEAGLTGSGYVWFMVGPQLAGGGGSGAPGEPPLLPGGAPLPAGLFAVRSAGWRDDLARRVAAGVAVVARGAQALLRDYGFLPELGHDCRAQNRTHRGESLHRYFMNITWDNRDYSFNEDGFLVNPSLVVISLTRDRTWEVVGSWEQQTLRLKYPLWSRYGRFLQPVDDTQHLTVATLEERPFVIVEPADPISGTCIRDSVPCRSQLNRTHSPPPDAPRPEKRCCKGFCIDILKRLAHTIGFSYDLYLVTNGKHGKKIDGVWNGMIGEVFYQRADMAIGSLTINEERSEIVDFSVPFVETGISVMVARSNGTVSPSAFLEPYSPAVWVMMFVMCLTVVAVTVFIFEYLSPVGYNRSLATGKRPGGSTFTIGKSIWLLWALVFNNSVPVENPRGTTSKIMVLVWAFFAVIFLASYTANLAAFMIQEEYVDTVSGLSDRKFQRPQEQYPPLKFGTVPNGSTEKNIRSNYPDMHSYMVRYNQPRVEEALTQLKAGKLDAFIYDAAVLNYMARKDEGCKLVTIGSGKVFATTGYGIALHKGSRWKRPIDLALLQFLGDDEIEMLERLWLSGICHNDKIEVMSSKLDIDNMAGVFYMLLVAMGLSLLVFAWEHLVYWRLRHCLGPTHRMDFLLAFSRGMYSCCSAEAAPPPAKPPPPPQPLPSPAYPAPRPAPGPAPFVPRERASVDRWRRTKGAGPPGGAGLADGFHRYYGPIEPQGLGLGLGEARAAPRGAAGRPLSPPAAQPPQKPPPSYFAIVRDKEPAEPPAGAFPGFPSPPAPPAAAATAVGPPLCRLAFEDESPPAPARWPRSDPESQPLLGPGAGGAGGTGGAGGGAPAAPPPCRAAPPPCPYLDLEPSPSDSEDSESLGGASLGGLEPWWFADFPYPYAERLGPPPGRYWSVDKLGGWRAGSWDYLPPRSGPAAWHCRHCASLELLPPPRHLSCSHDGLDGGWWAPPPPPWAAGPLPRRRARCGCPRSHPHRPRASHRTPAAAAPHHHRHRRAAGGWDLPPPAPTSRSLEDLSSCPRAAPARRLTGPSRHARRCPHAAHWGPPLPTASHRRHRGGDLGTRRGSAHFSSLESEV
T3 sequence (Q13224 27-1484, other chains not shown): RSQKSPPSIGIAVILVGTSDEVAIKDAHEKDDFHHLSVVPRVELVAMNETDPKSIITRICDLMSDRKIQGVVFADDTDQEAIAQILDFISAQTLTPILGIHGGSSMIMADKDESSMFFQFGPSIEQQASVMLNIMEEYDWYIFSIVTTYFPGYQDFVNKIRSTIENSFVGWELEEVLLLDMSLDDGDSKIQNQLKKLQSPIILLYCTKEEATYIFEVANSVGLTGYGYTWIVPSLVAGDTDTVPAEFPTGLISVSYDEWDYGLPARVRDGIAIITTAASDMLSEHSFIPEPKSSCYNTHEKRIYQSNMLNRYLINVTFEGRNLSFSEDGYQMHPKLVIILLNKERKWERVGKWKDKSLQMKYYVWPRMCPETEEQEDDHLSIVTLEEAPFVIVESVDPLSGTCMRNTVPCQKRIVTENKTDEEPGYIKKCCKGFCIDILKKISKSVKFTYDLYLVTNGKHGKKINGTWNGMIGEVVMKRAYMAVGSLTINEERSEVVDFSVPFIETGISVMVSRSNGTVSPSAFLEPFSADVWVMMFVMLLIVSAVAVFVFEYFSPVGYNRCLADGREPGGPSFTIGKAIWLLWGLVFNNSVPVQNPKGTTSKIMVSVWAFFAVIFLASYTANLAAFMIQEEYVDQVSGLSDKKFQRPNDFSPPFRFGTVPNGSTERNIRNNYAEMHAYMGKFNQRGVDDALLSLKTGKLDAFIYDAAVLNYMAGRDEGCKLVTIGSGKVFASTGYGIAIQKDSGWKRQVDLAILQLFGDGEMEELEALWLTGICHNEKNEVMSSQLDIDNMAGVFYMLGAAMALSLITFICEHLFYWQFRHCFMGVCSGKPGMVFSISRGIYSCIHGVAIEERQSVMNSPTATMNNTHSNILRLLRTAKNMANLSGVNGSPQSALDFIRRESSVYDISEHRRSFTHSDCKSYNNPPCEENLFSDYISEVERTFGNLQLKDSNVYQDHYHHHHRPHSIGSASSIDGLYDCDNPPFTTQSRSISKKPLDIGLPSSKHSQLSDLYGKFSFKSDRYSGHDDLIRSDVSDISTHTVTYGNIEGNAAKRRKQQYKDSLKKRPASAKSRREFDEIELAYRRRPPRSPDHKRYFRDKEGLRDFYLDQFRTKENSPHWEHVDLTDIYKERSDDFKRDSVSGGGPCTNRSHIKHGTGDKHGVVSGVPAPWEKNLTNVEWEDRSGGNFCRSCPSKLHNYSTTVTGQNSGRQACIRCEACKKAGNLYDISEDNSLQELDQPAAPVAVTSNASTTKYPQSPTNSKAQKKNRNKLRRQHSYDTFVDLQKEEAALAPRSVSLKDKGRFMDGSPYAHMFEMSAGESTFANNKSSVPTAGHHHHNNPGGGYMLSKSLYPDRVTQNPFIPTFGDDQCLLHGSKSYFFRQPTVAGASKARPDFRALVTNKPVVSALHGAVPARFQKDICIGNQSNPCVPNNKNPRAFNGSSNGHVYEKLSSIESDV

For `O=C(O)c1cc(=O)c2c(Cl)cc(Cl)cc2[nH]1` [5,7-DCKA, reference compound], the results for the IC50 at human GluN2D (setting [1]), on human GluN2A (setting [2]) and on human GluN2B (setting [3]) were more than 10000 nM, 1170 ± 230 nM and 8400 ± 1400 nM, respectively.

Consider `N[C@@H](Cc1ccccn1)c1ccccc1` [ARL-15896, reference compound], for which the IC50 on human GluN2D (setting [1]) amounted to 25000 nM; on human GluN2B (setting [3]) it was 510000 nM.

With `C[C@@H]([C@@H](O)c1ccc(O)cc1)N1CCC(O)(c2ccccc2)CC1` [CP-101,606, reference compound], the IC50 on human GluN2D (setting [1]) and on human GluN2A (setting [2]) was more than 10000 nM throughout.

As to `C[C@]12N[C@H](Cc3ccccc31)c1ccccc12` [MK-801, reference compound], the IC50 was found to be 87 ± 3 nM at human GluN2D and 75 ± 4 nM against human GluN2B.

Turning to `O=C(O)[C@@H]1[C@H](C(=O)O)NCCN1C(=O)c1ccc2c(ccc3ccccc32)c1` [PPDA, reference compound], the figures for the IC50 at human GluN2D (setting [1]), on human GluN2A (setting [2]) and on human GluN2B (setting [3]) were 34800 nM, 4860 ± 960 nM and 8490 ± 1000 nM, respectively.

For `Cc1ncc(CNC(=O)c2ccc(CNS(=O)(=O)c3ccc(F)c(Cl)c3)cc2)s1` [compound 2], the values for the inhibition at 10 µM at human GluN2D, on human GluN2A and on human GluN2B were -6 ± 2%, more than 95% and 4 ± 1%, respectively. In addition, the IC50 on human GluN2A came out at 398 ± 90 nM.

Regarding `Cc1ncc(CNC(=O)c2ccc(CNS(=O)(=O)c3ccc(F)c(Cl)c3)cn2)s1` [compound 3], the inhibition at 10 µM on human GluN2D is -6 ± 2%; at human GluN2A it was more than 95%; on human GluN2B it was 1 ± 1%. In addition, at human GluN2A, the half-inhibitory concentration (IC50) was determined as 75 ± 13 nM.

With `Cc1ncc(CNC(=O)c2cnc(CNS(=O)(=O)c3ccc(F)c(F)c3)cn2)s1` [compound 5], the inhibition at 10 µM at human GluN2D is -10 ± 5%; on human GluN2A, more than 95%; at human GluN2B it was -8 ± 2%. Further, the IC50 at human GluN2A was 116 ± 22 nM.

Turning to `Cc1ncc(CNC(=O)c2ccc(CNS(=O)(=O)c3ccc(F)c(F)c3)cn2)s1` [compound 6], the figures for the inhibition at 10 µM at human GluN2D, on human GluN2A and on human GluN2B were -13 ± 10%, more than 95% and -1 ± 1%, respectively. In addition, the IC50 on human GluN2A was 158 ± 30 nM.

Take `Cc1ncc(CNC(=O)c2cnc(CNS(=O)(=O)c3ccc(F)c(Cl)c3)c(C)n2)s1` [compound 7]: the results for the inhibition at 10 µM on human GluN2D, at human GluN2A and on human GluN2B were -1 ± 2%, more than 95% and -8 ± 1%, respectively. The IC50 on human GluN2A turned out to be 18 ± 2 nM.

On to `Cc1ncc(CNC(=O)c2cnc(CNS(=O)(=O)c3ccc(Cl)c(F)c3)c(C)n2)s1` [compound 8], for which the inhibition at 10 µM is 6 ± 6% at human GluN2D, more than 95% at human GluN2A and -7 ± 2% at human GluN2B. Moreover, on human GluN2A, the IC50 amounted to 971 ± 242 nM.

Take `Cc1ncc(CNC(=O)c2cnc(CN(C)S(=O)(=O)c3ccc(F)c(Cl)c3)c(C)n2)s1` [compound 10]: on human GluN2A, the inhibition at 10 µM was more than 95% and the IC50 was 242 ± 61 nM.
